Tests used:
Assay type in all cases: cell-based
human CCR6 [1] = molecular target: T1, human CCR6 (Homo sapiens, UniProt P51684); assay: CHO-K1 CCR6 chemotaxis assay towards CCL20; conditions: relative -LogIC50; CHO-K1 cells overexpressing human CCR6, 100 ng/ml CCL20, Transwell, 4 h
T1 sequence (P51684 1-374): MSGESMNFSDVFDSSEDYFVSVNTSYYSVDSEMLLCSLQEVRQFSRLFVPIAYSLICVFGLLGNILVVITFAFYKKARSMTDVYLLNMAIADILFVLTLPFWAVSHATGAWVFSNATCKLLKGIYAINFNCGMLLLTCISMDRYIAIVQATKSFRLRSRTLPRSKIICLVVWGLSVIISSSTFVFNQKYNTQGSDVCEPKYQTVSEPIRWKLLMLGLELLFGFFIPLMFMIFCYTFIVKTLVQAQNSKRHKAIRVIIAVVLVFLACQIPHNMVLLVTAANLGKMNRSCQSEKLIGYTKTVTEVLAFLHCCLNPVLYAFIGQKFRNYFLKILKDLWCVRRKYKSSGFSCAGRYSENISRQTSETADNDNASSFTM
From the text: Cells overexpressing human CCR6 were used in the chemotaxis assay (DiscoverX, CAMP Hunter™ CHO-K1 CCR6 Gi Cell Line). Growth medium of these cells consisted of DMEM/F12, non-essential Amino acids (1×NEAA, Gibco 11140050), 10% FBS and 1× pen/strep (Gibco 15140). For the chemotaxis assay, Corning Transwell plates were used with a pore size of 8 μm (Corning 351164). Cells were harvested using trypsin and diluted to 4*10^6 cells/ml in chemotaxis medium (DMEM, 0.25% BSA, pen/strep). Compounds were four-fold serially diluted in DMSO. Further dilutions were made in chemotaxis medium. Cells were incubated with test compounds for 30 min at 37° C. prior to initiation of the assay (2*10^6 cells/ml). Final DMSO concentration in the assay was 0.2%. Wells of the Transwell plates were filled with 200 μl chemotaxis medium containing 100 ng/ml CCL20 (R&D systems 360-MP). 50 μl of the cell/compound suspension was added to the inserts of the Transwell plates (100,000 cells/insert). The Transwell plates were placed in an incubator at 37° C., 5% CO2 for 4 h. After 4 h, the number of migrated cells was quantified using CellTiter Glo (Promega). Percentage inhibition values were calculated based on the low and high signal obtained with 0.2% DMSO in chemotaxis medium without and with CCL20, respectively. The relative-LogIC50 was determined with GraphPad Prism 9 using a four-parameter dose-response model.

human CCR6 [2] = molecular target: T1, human CCR6; assay: Human CCR6-Cre reporter assay; set-up: The second construct contained the open reading frame of human CCR6 in the pUNO1 backbone; host or cells: 293 FT cells; conditions: relative -LogIC50; transfected 293 FT cells, 6 μM Forskolin, 6 nM CCL20, luciferase readout, 5h
Method: 293 FT cells were transfected with 2 constructs using TransIT-293 (Mirus). The first construct (pGL4.29, Promega) expressed the luciferase reporter gene luc2P in response to the binding of cAMP-induced CREB to the CRE element in its promoter. The second construct contained the open reading frame of human CCR6 in the pUNO1 backbone under the control of an enhanced CMV promoter (In VivoGen). 48h after transfection, cells were harvested and diluted to 750,000 cells/ml in culture medium (DMEM, 10% FBS, 1× pen/strep (Gibco 15140)). Compounds were 2.5-fold serially diluted in DMSO. Further dilutions were made in assay medium (DMEM, 10% FBS, 1× pen/strep, 6 μM Forskolin, 6 nM CCL20). 4 μl of the compound solution was added to a white MW384 plate, followed by 20 μl of the cell suspension. Final DMSO concentration in the assay was 0.1%. The MW384 plate was placed in an incubator at 37° C., 5% CO2 for 5h. Luciferase activity was determined by addition of 24 μl of a 2.5× diluted BriteLite luciferase solution (Perkin Elmer), followed by luminescence measurement using a VICTOR Plate reader (Perkin Elmer). […] The relative-LogIC50 was determined with GraphPad Prism 9 using a four-parameter dose-response model.

Human CD4+ T cells = assay: CD4+ T cell chemotaxis assay towards CCL20; conditions: relative -LogIC50, 150 ng/ml CCL20, Transwell, 3 h
From the text: Human CD4+ T cells were isolated from buffy coats of healthy donors using a CD4+ T Cell Isolation Kit (Miltenyi Biotec130-096-533). Isolated T cells were stimulated overnight with anti-CD3 and anti-CD28 antibodies (Biolegend 300314/302934) in growth medium (RPMI1640, 10% heat-inactivated FBS, 1× pen/strep (Gibco 15140)). For the chemotaxis assay, Corning Transwell plates were used with a pore size of 5 μm (Corning 3388). T cells were counted and diluted to 6*10^6 cells/ml in chemotaxis medium (RPMI1640, 1% BSA, pen/strep). Compounds were four-fold serially diluted in DMSO. Further dilutions were made in chemotaxis medium. Cells were incubated with test compounds for 30 min at 37° C. prior to initiation of the assay (3*10^6 cells/ml). Final DMSO concentration in the assay was 0.2%. Wells of the Transwell plates were filled with 200 μl chemotaxis medium containing 150 ng/ml CCL20 (R&D systems 360-MP). 50 μl of the cell/compound suspension was added to the inserts of the Transwell plates (150,000 cells/insert). The Transwell plates were placed in an incubator at 37° C., 5% CO2 for 3 h. After 3 h, the number of migrated cells was quantified using CellTiter Glo (Promega). Percentage inhibition values were calculated based on the low and high signal obtained with 0.2% DMSO in chemotaxis medium without and with CCL20, respectively. The relative −LogIC50 was determined with GraphPad Prism 9 using a four-parameter dose-response model.

Row | IC50 (human CCR6 [1]) | IC50 (human CCR6 [2]) | IC50 (Human CD4+ T cells) | SMILES
1 | 6.31 nM | 50.1 nM | 6.31 nM | O=S(=O)(c1ccc(-c2ccc3nnc(C(F)F)n3c2)cc1)N1CCC(Nc2ccc(C3(C(F)(F)F)CC3)cn2)CC1 [Example 44, N-(1-{4-[3-(difluoromethyl)-[1,2,4]triazolo[4,3-a]pyridin-6-yl]benzenesulfonyl}piperidin-4-yl)-5-[1-(trifluoromethyl)cyclopropyl]pyridin-2-amine]
2 | 20 nM | 31.6 nM | 7.94 nM | NC(=O)c1cc(-c2ccc(S(=O)(=O)N3CCC(Nc4ccc(C5(C(F)(F)F)CC5)cn4)CC3)cc2)ccn1 [Example 45, 4-(4-{[4-({5-[1-(trifluoromethyl)cyclopropyl]pyridin-2-yl}amino)piperidin-1-yl]sulfonyl}phenyl)pyridine-2-carboxamide]
3 | 126 nM | 126 nM | – | CNC(=O)c1ccc(-c2ccc(S(=O)(=O)N3CCC(Nc4ccc(C5(C(F)(F)F)CC5)cc4)CC3)cc2)cn1 [Example 6, N-methyl-5-(4-{[4-({4-[1-(trifluoromethyl)cyclopropyl]phenyl}Amino)piperidin-1-yl]sulfonyl}phenyl)pyridine-2-carboxamide]
4 | 3.98 nM | 100 nM | – | CC(C)c1cnc2ccc(-c3ccc(S(=O)(=O)[C@H]4CC[C@H](Nc5ccc(C6(C(F)(F)F)CC6)cc5)CC4)cc3)cn12 [Example 20, N-[trans-4-{4-[3-(propan-2-yl)imidazo[1,2-a]pyridin-6-yl]benzenesulfonyl}cyclohexyl]-4-[1-(trifluoromethyl)cyclopropyl]aniline]
5 | 15.8 nM | 63.1 nM | 2 nM | Cc1cc(-c2ccc(S(=O)(=O)N3CCC(Nc4ccc(C5(C(F)(F)F)CC5)cn4)CC3)cc2)cn2c(C(C)C)nnc12 [Example 46, N-(1-{4-[8-methyl-3-(propan-2-yl)-[1,2,4]triazolo[4,3-a]pyridin-6-yl]benzenesulfonyl}piperidin-4-yl)-5-[1-(trifluoromethyl)cyclopropyl]pyridin-2-amine]
6 | 126 nM | 200 nM | – | NC(=O)c1ccc(-c2ccc(S(=O)(=O)N3CCC(Nc4ccc(C5(C(F)(F)F)CC5)cc4)CC3)cc2)cc1 [Example 7, 4′-{[4-({4-[1-(trifluoromethyl)cyclopropyl]phenyl}Amino)piperidin-1-yl]sulfonyl}-[1,1′-biphenyl]-4-carboxamide]
7 | 158 nM | 158 nM | – | CNC(=O)c1ccc(-c2ccc(S(=O)(=O)N3CCC(Nc4ccc(C5(C(F)(F)F)CC5)cc4)CC3)cc2)cc1 [Example 5, N-methyl-4′-{[4-({4-[1-(trifluoromethyl)cyclopropyl]phenyl}Amino)piperidin-1-yl]sulfonyl}-[1,1′-biphenyl]-4-carboxamide]
8 | 15.8 nM | 50.1 nM | 0.631 nM | CC(C)c1nnc2ccc(-c3ccc(S(=O)(=O)N4CCC(Nc5ccc(C6(C(F)(F)F)CC6)cc5)CC4)cc3)cn12 [Example 40, 1-{4-[3-(propan-2-yl)-[1,2,4]triazolo[4,3-a]pyridin-6-yl]benzenesulfonyl}-N-{4-[1-(trifluoromethyl)cyclopropyl]phenyl}piperidin-4-amine]
9 | 25.1 nM | 79.4 nM | – | CNC(=O)c1cccc(-c2ccc(S(=O)(=O)N3CCC(Nc4ccc(C5(C(F)(F)F)CC5)cc4)CC3)cc2)c1 [Example 4, N-methyl-4′-{[4-({4-[1-(trifluoromethyl)cyclopropyl]phenyl}Amino)piperidin-1-yl]sulfonyl}-[1,1′-biphenyl]-3-carboxamide]
